# Experimental data: PubChem BioAssay (NCI)
#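 These data come from cells grown in 96-well plates and exposed to compound for 48 hours at five concentrations. At the TGI there is no net growth.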
# What was measured:
# Experiment in all cases: NCI tumour cell line growth inhibition, 48 h
# HOP-92 NSCLC = system: HOP-92 NSCLC
# A549 NSCLC = system: A549 NSCLC
# SK-MEL-5 melanoma = system: SK-MEL-5 melanoma
# HCC-2998 colon = system: HCC-2998 colon
# SK-OV-3 ovarian = system: SK-OV-3 ovarian
# UACC-257 melanoma = system: UACC-257 melanoma
# HCT-15 colon = system: HCT-15 colon
# OVCAR-8 ovarian = system: OVCAR-8 ovarian
# SN12C renal = system: SN12C renal
# OVCAR-5 ovarian = system: OVCAR-5 ovarian
# HS 578T breast = system: HS 578T breast
# MALME-3M melanoma = system: MALME-3M melanoma
# TK-10 renal = system: TK-10 renal
# HOP-62 NSCLC = system: HOP-62 NSCLC
# SK-MEL-2 melanoma = system: SK-MEL-2 melanoma
# UO-31 renal = system: UO-31 renal
# BT-549 breast = system: BT-549 breast
# U251 CNS = system: U251 CNS
# OVCAR-3 ovarian = system: OVCAR-3 ovarian
# COLO 205 colon = system: COLO 205 colon
Structure (SMILES),TGI (HOP-92 NSCLC) [µM],TGI (A549 NSCLC) [µM],TGI (SK-MEL-5 melanoma) [µM],TGI (HCC-2998 colon) [µM],TGI (SK-OV-3 ovarian) [µM],TGI (UACC-257 melanoma) [µM],TGI (HCT-15 colon) [µM],TGI (OVCAR-8 ovarian) [µM],TGI (SN12C renal) [µM],TGI (OVCAR-5 ovarian) [µM],TGI (HS 578T breast) [µM],TGI (MALME-3M melanoma) [µM],TGI (TK-10 renal) [µM],TGI (HOP-62 NSCLC) [µM],TGI (SK-MEL-2 melanoma) [µM],TGI (UO-31 renal) [µM],TGI (BT-549 breast) [µM],TGI (U251 CNS) [µM],TGI (OVCAR-3 ovarian) [µM],TGI (COLO 205 colon) [µM]
C=CCSC1=N/C(=C\c2ccc(OC)cc2)C(=O)N1CC=C,> 100,> 100,29,79.7,> 100,58.4,> 100,> 100,62.2,> 100,> 100,87.7,> 100,> 100,91.5,> 100,74.4,> 100,> 100,40.2
O=C(OCc1ccccc1)c1ccc(NCc2cc(O)ccc2O)cc1,2.23,20.5,2.87,6.12,11.2,3.4,2.42,2.75,2.78,13.9,5.43,2.98,3.87,20.1,5.23,2.61,2.19,2.64,2.38,2.88
C[C@H](c1ccccc1)n1c(N)c(-c2nc3ccccc3s2)c2ccc([N+](=O)[O-])cc2c1=O,5.81,> 100,19.8,> 85.1,> 100,76.9,> 75.4,> 100,> 100,> 100,> 43.7,56.8,> 100,56.9,> 28.7,18.4,> 95.9,53.3,> 100,36.4
O=C1N/C(=N\N=C\c2ccccc2)C2(CCCCC2)O1,> 100,> 100,> 100,> 100,> 100,> 100,> 100,> 100,> 100,> 100,> 100,> 100,> 100,> 100,> 100,> 100,> 100,> 100,> 100,> 100
CCOC(=O)N/N=C(\CC)NO,> 100,> 100,> 100,> 100,> 100,> 100,> 100,> 100,> 100,> 100,> 100,> 100,> 100,> 100,> 100,> 100,> 100,> 100,> 100,> 100
N#Cc1c(N)nc(SCc2ccccc2)c(C#N)c1-c1ccc(O)cc1,22,48.7,27.1,> 55.6,31.4,> 52.4,30.4,30.7,33.4,32.2,> 100,30,> 64.7,32.6,35.5,3.9,24.7,30.5,33.4,37.8
CC(C)(C)n1c(=O)n(-c2ccccc2)n(C(C)(C)C)c1=O,> 100,> 100,> 100,> 100,> 100,> 100,> 100,> 100,> 100,> 100,> 100,> 100,> 100,> 100,> 100,> 100,> 100,> 100,> 100,> 100
COc1ccc(-c2c(-c3ccccc3)c(C)nc3[nH]c(=S)[nH]c(=S)c23)cc1OC,> 100,> 100,> 100,> 100,> 100,> 100,> 100,> 100,83.3,> 100,> 100,90.1,> 100,89.6,48.1,68.4,> 100,> 100,40.2,72.1
O=C1C=C(NCC(c2ccccc2)c2ccccc2)C(=O)c2ncccc21,12.9,1.87,1.62,2.12,47.6,2.45,1.34,11.5,5.16,10.1,12.3,3.4,51.5,4.02,9.13,12.2,5.09,11.4,3.32,24.4
Clc1ccc(C(Cc2ccccc2)c2c(Cl)nc(N3CCNCC3)nc2Cl)cc1 (stereo not given),25.7,30.4,27.8,26,33.2,34,14.5,27.3,28.8,32,32.6,28.4,34.3,30.2,33.2,27.2,47.4,26.9,28.2,3.11
COC(=O)[C@@H](NC(=O)[C@H](N)Cc1ccc(N(CCCl)CCCl)cc1)C(C)C,5.72,> 100,10.8,26.5,> 100,25,72.8,27.8,> 79.7,> 100,77.7,6.19,56.7,> 100,> 100,33,65.3,> 100,> 72.8,> 64.4
Cc1nc2c(O)c3c(c(O)c2nc1C)C1C=CC3CC1,7.75,63.5,27.7,> 59.2,55.2,18.2,34.8,20.9,27.4,34.9,78.3,26.1,40.8,36.4,33,24.8,30.4,21.6,21.2,38.4
Cc1cccc(Nc2nc3ccccc3nc2NS(=O)(=O)c2ccccc2)c1,63.7,> 100,> 100,6.93,> 100,> 100,65.9,> 100,> 100,> 100,> 100,> 100,> 100,87.1,68.6,59,> 100,59,80,30.7
CNn1c(-c2ccc(C)cc2)n[nH]c1=O,> 100,> 100,> 100,> 100,> 100,> 100,> 100,> 100,> 100,> 100,> 100,> 100,> 100,> 100,> 100,> 100,> 100,> 100,> 100,> 100
CN1C(=O)[C@H](c2c[nH]c3ccccc23)[C@H](c2c[nH]c3ccccc23)C1=O,> 67.3,> 100,> 52.5,> 100,> 100,> 63.8,> 59.9,> 100,> 100,> 100,> 86.3,> 100,61.2,> 64.1,> 55.2,62.4,55.7,> 90.1,> 56.5,> 37.9
COc1ccc(C[C@@H](C(=O)O[C@H](C)[C@H](NC(=O)[C@@H](CC(C)C)N(C)C(=O)C2CCCN2C(=O)[C@H](C)O)C(=O)N2CCCCNC(=O)[C@@H](C)C(=O)[C@H](C(C)C)OC(=O)C[C@H](O)[C@H]2CC(C)C)N(C)C(C)=O)cc1 (stereo not given in full),> 50,> 50,34.1,23,> 50,> 50,> 50,> 50,> 50,> 50,34.8,49.1,> 50,> 50,> 50,> 50,> 50,21.8,> 50,14.8
COc1ccc2c(C)cc(N/N=C/c3ccc(C)s3)nc2c1,> 51.6,39.7,16,19.6,43.6,> 52.9,41.3,51.5,37.3,30.2,> 90.9,> 69.6,> 54.3,56.9,37.9,35.4,62.8,> 48,8.88,9.24
CCO[C@@]12CCC3CC4CC[C@@](OCC)(O1)C4C32 (stereo not given in full),> 100,> 100,> 100,> 100,> 100,> 100,> 100,> 100,> 100,> 100,> 100,> 100,> 100,> 100,> 100,> 100,> 100,> 100,> 100,> 100
